Results published in the supplement of paper PMC10307832.

How the values were obtained:
Assay in all cases: relative viability (nuclei count vs DMSO), 5 days (fraction); higher = more cells survive
Masitinib + Olaparib = compound: Cc1ccc(NC(=O)c2ccc(CN3CCN(C)CC3)cc2)cc1Nc1nc(-c2cccnc2)cs1 [Masitinib] + O=C(c1cc(Cc2n[nH]c(=O)c3ccccc23)ccc1F)N1CCN(C(=O)C2CC2)CC1 [Olaparib] (partner 8 µM)
Outline: (§1)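 For relative viability, nuclei counts in treated wells were divided by those in vehicle wells. Lung cancer cell lines had been pin-tool dosed in 1536-well plates the day after seeding and cultured for 5 days, then fixed and stained in one step (final 0.05% Triton X-100, 1% formaldehyde, 1 ug/ml Hoechst) and imaged at 4×. Doses were one drug alone or a fixed anchor-drug dose plus five library-drug doses (not always all listed) in √10 steps, and values are duplicate-plate medians.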

Masitinib + Decitabine = compound: Cc1ccc(NC(=O)c2ccc(CN3CCN(C)CC3)cc2)cc1Nc1nc(-c2cccnc2)cs1 [Masitinib] + Nc1ncn([C@H]2C[C@H](O)[C@@H](CO)O2)c(=O)n1 [Decitabine] (partner 2 µM)
Outline: as §1

Masitinib + Bortezomib = compound: Cc1ccc(NC(=O)c2ccc(CN3CCN(C)CC3)cc2)cc1Nc1nc(-c2cccnc2)cs1 [Masitinib] + CC(C)C[C@H](NC(=O)[C@H](Cc1ccccc1)NC(=O)c1cnccn1)B(O)O [Bortezomib] (partner 0.002 µM)
Outline: as §1

Masitinib + Crizotinib = compound: Cc1ccc(NC(=O)c2ccc(CN3CCN(C)CC3)cc2)cc1Nc1nc(-c2cccnc2)cs1 [Masitinib] + C[C@@H](Oc1cc(-c2cnn(C3CCNCC3)c2)cnc1N)c1c(Cl)ccc(F)c1Cl [Crizotinib] (partner 1 µM)
Outline: as §1

In the case of UMC-11, the relative viability (Masitinib + Olaparib; first compound 0.01 µM) was 0.354, the relative viability (Masitinib + Olaparib; first compound 0.03162 µM) was 0.371 and the relative viability (Masitinib + Olaparib; first compound 0.1 µM) was 0.372. The relative viability (Masitinib + Olaparib; first compound 0.3162 µM) was 0.376, the relative viability (Masitinib + Olaparib; first compound 1 µM) was 0.398 and the relative viability (Masitinib + Decitabine; first compound 0.01 µM) was 0.565. It also gave a relative viability (Masitinib + Decitabine; first compound 0.03162 µM) of 0.641, a relative viability (Masitinib + Decitabine; first compound 0.1 µM) of 0.692 and a relative viability (Masitinib + Decitabine; first compound 0.3162 µM) of 0.608. The relative viability (Masitinib + Decitabine; first compound 1 µM) was 0.596, the relative viability (Masitinib + Bortezomib; first compound 0.01 µM) was 0.793 and the relative viability (Masitinib + Bortezomib; first compound 0.03162 µM) was 0.743. For the same cell line, the relative viability (Masitinib + Bortezomib; first compound 0.1 µM) was 0.79, the relative viability (Masitinib + Bortezomib; first compound 0.3162 µM) was 1.03 and the relative viability (Masitinib + Bortezomib; first compound 1 µM) was 0.714. It also gave a relative viability (Masitinib + Crizotinib; first compound 0.01 µM) of 0.467, a relative viability (Masitinib + Crizotinib; first compound 0.03162 µM) of 0.677 and a relative viability (Masitinib + Crizotinib; first compound 0.1 µM) of 0.706. The relative viability (Masitinib + Crizotinib; first compound 0.3162 µM) was 0.571 and the relative viability (Masitinib + Crizotinib; first compound 1 µM) was 0.691.
